Source: patent US20260144769A1, “4-PHENYLBUTYRATE RESTORED GABA UPTAKE AND REDUCED SEIZURES IN SLC6A1 VARIANT-MEDIATED DISORDERS” (Vanderbilt University, priority 2022, published 2026)

Key:
[1] = biological target: T1, GAT-1 in corrected isogenic control astrocytes (Homo sapiens, UniProt P30531); assay: 3H GABA uptake, corrected isogenic control iPSC derived astrocytes; type: cell-based; details: PBA 2 mM, 24 hrs
T1 construct: endogenous in cells; host or cells: astrocytes differentiated from CRISPR-corrected isogenic control iPSCs
T1 sequence (P30531 whole entry): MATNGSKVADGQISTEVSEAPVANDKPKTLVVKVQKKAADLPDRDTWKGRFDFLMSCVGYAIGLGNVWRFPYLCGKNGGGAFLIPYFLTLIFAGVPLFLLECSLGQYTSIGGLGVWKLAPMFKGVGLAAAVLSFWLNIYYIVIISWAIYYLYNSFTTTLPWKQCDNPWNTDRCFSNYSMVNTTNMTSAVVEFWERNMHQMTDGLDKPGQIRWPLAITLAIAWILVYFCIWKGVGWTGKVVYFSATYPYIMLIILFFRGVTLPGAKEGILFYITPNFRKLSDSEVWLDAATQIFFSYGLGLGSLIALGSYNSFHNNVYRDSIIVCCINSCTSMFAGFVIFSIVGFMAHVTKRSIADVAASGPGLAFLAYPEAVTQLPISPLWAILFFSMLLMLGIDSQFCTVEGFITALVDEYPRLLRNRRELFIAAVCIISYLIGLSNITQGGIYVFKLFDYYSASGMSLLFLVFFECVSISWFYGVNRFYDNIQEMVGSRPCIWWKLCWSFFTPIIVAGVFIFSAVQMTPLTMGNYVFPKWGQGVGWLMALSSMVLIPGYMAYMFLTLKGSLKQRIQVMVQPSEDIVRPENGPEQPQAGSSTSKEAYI
Protocol: (§1) Live images of human neural progenitor cells (NPCs), astrocytes and GABAergic inhibitory neurons differentiated from the human induced pluripotent stem cells (iPSCs) on the day of experiment. […] The DMSO treated corrected or patient cells was taken as 1. […] GABA flux was measured after 30 min transport at room temperature. The influx of GABA, expressed in pmol/μg protein/min, was averaged from duplicates for each condition and for each transfection. The average counting was DMSO treated condition taken as 1. In FIG. 5B, FIG. 5D and FIG. 5F, 966 stands for CI-966 (50 μM) and 711 stands for NNC-711 (35 μM) that was applied 30 min to the astrocytes transfected with the wildtype GAT-1^YFP before preincubation and removed during preincubation. In FIGS. 5B and D, ***p<0.001 vs. corrected DMSO treated. § § <0.01, § § § p<0.001 vs. patient DMSO treated. […] In FIGS. 5B-E, n=4-8 batches of cells. In FIG. 5F, n=4-5 different transfections). Unpaired t test was used for FIG. 5C and FIG. 5E. […] Values were expressed as mean±S.E.M.). […]
(§2) Briefly, cells were cultured in […] dishes for 3 days before the GABA uptake experiment in DMEM with 10% fetal bovine serum and 1% penicillin/streptomycin. […] Glacial acetic acid was added, and lysates were then determined on a liquid scintillator with QuantaSmart. […]

[2] = tested on: GAT-1 in human iPSC-derived neurons; assay: 3H GABA uptake, human iPSC-derived neurons; type: cell-based; details: PBA treated human iPSC-derived neurons; PBA 2 mM, 24 hrs
Protocol: as §1, §2

GAT-1 = GAT-1 protein expression in brain regions of SLC6A1^+/S295L heterozygous mice; type: in vivo, mouse; details: S295L het; cerebellum; PBA 100 mg/kg, 7 days
From the text: FIGS. 8C-D show integrated density values (IDVs) for total GAT-1 from wild-type and het KI were normalized to the Na^+/K^+ ATPase or anti-glyceraldehyde-3-phosphate dehydrogenase (GAPDH) loading control (LC) in each specific brain region and plotted. N=4 from 4 pairs of mice. […] The vehicle treated in each brain region was taken as 1. N=4 from 4 pairs of mice for FIG. 8C, FIG. 8D, FIG. 8G and FIG. 8H, Values were expressed as mean±S.E.M. One way ANOVA or unpaired t test.
The working solution was stored at 4° C.
Data were expressed as mean±SEM. Proteins were quantified by Odyssey software and data were normalized to loading controls and then to the wildtype subunit protein, which was arbitrarily taken as 1 in each experiment. Fluorescence intensities from confocal microscopy experiments were determined using MetaMorph imaging software, and the measurements were carried out in ImageJ. For statistical significance, one-way or two-way analysis of variance (ANOVA) with post hoc Dunnett or Newman-Keuls test were used. In some cases, unpaired t-test or one sample t-test was performed (GraphPad Prism, La Jolla, CA), and statistical significance was taken as p<0.05.

With `O=C(O)CCCc1ccccc1` [PBA, 4-phenylbutyric acid] as the compound, how does the “GABA uptake normalized to its DMSO treated” value [1] read?
Its value is 1.173±0.026.

What about the “increase of GABA uptake” value [2] of the same compound?
The value was about 20%.

And the “GAT-1 expression vs. same brain region of vehicle treated mice taken as 1” value (GAT-1)?
Its value is 1.03±0.03.
